From PubChem BioAssay AID463199 (Broad Institute, 2010)
Active and inactive are the calls of the source.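 The calls were made as follows: active = AC50, the dose giving half-maximal effect, exceeds a fixed cutoff for a compound that rescues yeast growth under heat; inactive = the rest, inconclusive results apart.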

Test system: S. cerevisiae Burl-1 ts mutant growth, BacTiter-Glo, 38.5C 24 h
Assay: growth induction of Burl-1 ts yeast mutant, dose response, counter-screen for SUMOylation pathway inhibitor project, whole organism, S. cerevisiae, luminescence (AID 463199)

Row | SMILES | AC50
1 | CC1(C)CC(=O)C2=C(C1)Oc1ncn(CCO)c(=N)c1C2c1ccccc1 (centres undefined) | > 42 µM (inactive)
2 | O=C(CS(=O)c1ccc(C(F)(F)F)cc1[N+](=O)[O-])Oc1ccc(Cl)cc1 (centres undefined) | > 42 µM (inactive)
3 | C/C(CC(=O)NC1CCCCC1)=N\NC(=O)Cc1ccc(-c2ccccc2)cc1 | > 42 µM (inactive)
4 | CCOc1ncccc1C(=O)OCC(=O)N(CC)c1ccccc1 | > 42 µM (inactive)
5 | CCC(C)[C@H](NC(=O)OC(C)(C)C)C(=O)NCC1CCC(C(=O)N[C@@H](Cc2ccccc2)C(=O)O)CC1 (some centres undefined) | > 42 µM (inactive)
6 | O=C(NCC1CCN(Cc2ccccc2Cl)CC1)Nc1ccccc1F | > 42 µM (inactive)
7 | O=C(O)CCSc1ccc([N+](=O)[O-])cc1[N+](=O)[O-] | > 42 µM (inactive)
8 | COc1cccc(-n2c(SCC(=O)NC3CCCCC3)nc3n[nH]c(C)c3c2=N)c1 | > 42 µM (inactive)
9 | CS(=O)(=O)N1CCCC(C(=O)Nc2ccc(F)cc2F)C1 (centres undefined) | > 42 µM (inactive)
10 | COc1ccc(-c2cc(C(F)(F)F)n3ncc(C(=O)O)c3n2)cc1OC | > 42 µM (inactive)
11 | CC(OC(=O)c1cnccn1)C(=O)c1ccccc1 (centres undefined) | > 42 µM (inactive)
12 | COC(=O)C(NC(C)=O)(Nc1nc2ccc(S(C)(=O)=O)cc2s1)C(F)(F)F (centres undefined) | > 42 µM (inactive)
13 | O=C(CSc1nc2ncccc2[nH]1)NC1CCCCC1 | > 42 µM (inactive)
14 | Cc1ccc(CN(C)C(=O)c2ccc3c(c2)NC(=O)CS3)o1 | > 42 µM (inactive)
15 | CCCCC(=O)NCCc1ccc(S(N)(=O)=O)cc1 | > 42 µM (inactive)
16 | CS(=O)(=O)Nc1ccccc1C(=O)NCCSCc1ccccc1 | > 42 µM (inactive)
17 | CC1CN(Cc2ccccc2)c2nc3c(c(=O)[nH]c(=O)n3C)n2C1 (centres undefined) | > 42 µM (inactive)
18 | CCC1C(c2ccccc2)NC(c2ccccc2)CC1(O)c1ccc(F)cc1 (centres undefined) | > 42 µM (inactive)
19 | N#CCCN(C(=O)COC(=O)c1ccc(S(=O)(=O)Nc2ccccc2)cc1)c1ccccc1 | > 42 µM (inactive)
20 | COc1ccc(C(=O)N/C(=C\c2cc(OC)c(OC)cc2[N+](=O)[O-])C(=O)NCCO)cc1 | > 42 µM (inactive)

Row | SMILES | AC50
21 | CN1CCCCC1=NCCCn1cnc2c1c(=O)n(C)c(=O)n2C | > 42 µM (inactive)
22 | COc1cc(CN2CCN(c3ncccn3)CC2)cc(OC)c1 | > 42 µM (inactive)
23 | N#CC(C#N)=CN=c1ccn(Cc2ccc(Cl)cc2Cl)cc1 | > 42 µM (inactive)
24 | COc1cc(NC(=O)c2cc(Cl)ccc2Cl)ccc1-c1cc2ccccc2oc1=O | > 42 µM (inactive)
25 | CCOc1ccc(CN(C)C(C)C(=O)NCc2ccccc2)cc1 (centres undefined) | > 42 µM (inactive)
26 | CC1CCC(C(C)C)C(OC(=O)COC(=O)c2cccn2C)C1 (centres undefined) | > 42 µM (inactive)
27 | O=C(Cc1cccs1)Nc1cccc(-c2nnc(-c3ccco3)o2)c1 | > 42 µM (inactive)
28 | CCOC(=O)C1C(c2ccc(C)o2)NC(=O)NC1(O)C(F)(F)F (centres undefined) | > 42 µM (inactive)
29 | COCC(=O)Nc1c(C(=O)Nc2ccc3c(c2)OCO3)oc2ccccc12 | > 42 µM (inactive)
30 | CCC(=O)Nc1ccc(S(=O)(=O)NCc2ccco2)cc1 | > 42 µM (inactive)
31 | O=C(Nc1ccccc1F)C1CCN(C(=O)Cc2ccccc2)CC1 | > 42 µM (inactive)
32 | Cc1cc(NC(=O)CCC(=O)N(c2cccnc2)C(C(=O)NC2CCCC2)c2ccccc2)no1 (centres undefined) | > 42 µM (inactive)
33 | Cc1ccccc1-n1ncc2c([N+](=O)[O-])cc([N+](=O)[O-])cc21 | > 42 µM (inactive)
34 | CCOC(=O)c1ccccc1NC(=O)C1CC(=O)N(C2CCCCC2)C1 (centres undefined) | > 42 µM (inactive)
35 | COc1nc(OC)nc(N2CCC(C(=O)NC3CCCCCC3)CC2)n1 | > 42 µM (inactive)
36 | O=S(=O)(NCc1ccccc1)c1ccc(S(=O)(=O)N(Cc2ccccn2)Cc2ccco2)cc1 | 16.7 µM
37 | CNC(=O)Nc1cc(NC(=O)NC)cc(C(F)(F)F)c1 | > 42 µM (inactive)
38 | O=C(Nc1ccccc1)N1CCN(CCc2ccccc2)CC1 | > 42 µM (inactive)
39 | COc1ccc(-n2nc(C(=O)NCC(=O)N3CCCC3)c3ccccc3c2=O)c(OC)c1 | > 42 µM (inactive)
